Data taken from US9063123B2, “Transgenic mice expressing human toll-like receptor 8” (Dynavax Technologies Corporation, priority 2011, dated 2015).

Key:
Format in all cases: cell-based
Mouse splenocytes = assay: IL-12 and TNF-α production by mouse splenocytes (ELISA); conditions: 5×10^5 cells from 129 wt and TLR7KO mice, 100 μg/ml
Method: (§1) The effect of TLR7 and TLR8-stimulating RNA PNs was further evaluated in mouse cells by measuring IL-12 and TNF-α production (FIG. 4). Mouse splenocytes and PBMCs were prepared from 129 wt mice and TLR7KO mice, and 5×10^5 cells were stimulated with 100 μg/ml of either TLR8 or TLR7 agonist as indicated in FIG. 4. IL-12 and TNF-α were measured by ELISA using standard techniques.

human pDCs = assay: Cytokine production by human pDCs stimulated with TLR7/TLR8 RNA PN (ELISA); conditions: 1×10^5 human pDCs (negative for TLR8), 100 μg/mL, 24 hours
Method: The effect of TLR7 and TLR8-stimulating RNA PN were also evaluated in human pDCs by measuring production of IL-6, TNF-α, and IFN-α. […] 1×10^5 pDCs from healthy human donors were stimulated with 100 μg/mL of either TLR8 agonist or TLR7 agonist (Lan et al., PNAS 104:13750-13755, 2007) or medium alone as indicated in FIG. 3. Twenty-four hours later supernatants were assessed for presence of inflammatory cytokines IL-6, TNF-α and IFN-α by standard ELISA procedure.

[1] = biological target: T1, human TLR8 expressed from the transgene in TLR8TGCL8 mice (Homo sapiens, UniProt Q9NR97); assay: Cytokine production by bone marrow cells from TLR8TGCL8 transgenic mice (ELISA); conditions: 5×10^5 bone marrow cells from TLR8TGCL8 mice vs C57BL/6 WT, 100 or 50 μg/mL, 24 hours
T1 construct: the human BAC carrying TLR8 gene was obtained from the RPCIB-753 BAC library; expressed in transfected cells; host or cells: Blood cells, bone marrow cells and PBMC of hTLR8 transgenic mice, and the whole animals; The mice came from C57BL/6NTac ES cells transfected with the BAC: the Clone 8 germline line and chimeras
T1 sequence (Q9NR97 27-1041): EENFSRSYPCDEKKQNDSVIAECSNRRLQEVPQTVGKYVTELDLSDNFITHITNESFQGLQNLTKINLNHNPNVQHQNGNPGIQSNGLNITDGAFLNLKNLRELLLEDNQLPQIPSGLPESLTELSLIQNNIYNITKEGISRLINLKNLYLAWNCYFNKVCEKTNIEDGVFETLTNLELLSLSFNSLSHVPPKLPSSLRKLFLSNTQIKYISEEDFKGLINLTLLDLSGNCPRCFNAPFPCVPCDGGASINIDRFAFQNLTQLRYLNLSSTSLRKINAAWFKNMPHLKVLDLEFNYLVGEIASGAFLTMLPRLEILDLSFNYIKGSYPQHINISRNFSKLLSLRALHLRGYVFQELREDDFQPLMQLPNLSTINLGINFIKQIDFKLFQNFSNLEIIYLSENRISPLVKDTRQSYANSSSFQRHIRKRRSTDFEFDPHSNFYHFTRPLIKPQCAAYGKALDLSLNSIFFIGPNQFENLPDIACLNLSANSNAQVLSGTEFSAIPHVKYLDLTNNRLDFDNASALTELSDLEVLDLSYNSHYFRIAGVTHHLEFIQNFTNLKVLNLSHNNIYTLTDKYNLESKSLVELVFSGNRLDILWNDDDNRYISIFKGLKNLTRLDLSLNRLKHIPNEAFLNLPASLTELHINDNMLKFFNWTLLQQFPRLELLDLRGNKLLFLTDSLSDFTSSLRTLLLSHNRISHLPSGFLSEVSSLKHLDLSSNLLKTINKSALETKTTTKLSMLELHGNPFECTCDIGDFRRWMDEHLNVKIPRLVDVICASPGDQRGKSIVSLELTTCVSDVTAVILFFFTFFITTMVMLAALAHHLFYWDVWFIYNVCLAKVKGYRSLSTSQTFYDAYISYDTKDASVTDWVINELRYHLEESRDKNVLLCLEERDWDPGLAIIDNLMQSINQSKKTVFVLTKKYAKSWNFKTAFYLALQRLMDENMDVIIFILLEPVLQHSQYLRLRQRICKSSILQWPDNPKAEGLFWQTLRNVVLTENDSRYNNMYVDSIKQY
From the text: (§2) PN-based TLR8 ligand stabilized immunomodulatory RNA (5′-M2[…]-/glycerol/-[…]2-5′ (M2=C6-linker); SEQ ID NO:3) and PN-based TLR7 ligand stabilized immunomodulatory RNA (5′-[…]-/glycerol/-[…]-5′ (R=7-deazaguanosine); SEQ ID NO:2) were previously identified (Lan et al., PNAS 104:13750-13755, 2007). To confirm that human TLR8 expressed from the transgene in TLR8TGCL8 mice is functional and sensitive to stimulation, the effect of TLR8-stimulating RNA PN (SEQ ID NO:3) on cytokine production was assessed. 5×10^5 blood cells from TLR8TGCL8 transgenic mice or C57BL/6 WT animals were stimulated with TLR8 agonist at different concentrations as shown in FIG. 13. 24 hours later supernatants were harvested and assayed for mouse IL-12, TNF-α and IL-6 using standard ELISA procedures. In addition, 5×10^5 bone marrow cells from TLR8TGCL8 transgenic mice or C57BL/6 WT animals were stimulated with TLR8 agonist (SEQ ID NO:3) at different concentrations as shown in FIG. 14. Mouse TNF-α and IL-6 production was assayed in supernatants harvested after 24 hours.

Mouse PBMCs = assay: IL-12 and TNF-α production by mouse PBMCs (ELISA); conditions: 5×10^5 cells from 129 wt and TLR7KO mice, 100 μg/ml
Method: as §1

human monocytes = assay: Cytokine production by human monocytes stimulated with TLR7/TLR8 RNA PN (ELISA); conditions: 2×10^5 human monocytes, 20, 100 or 200 μg/mL, 24 hours, compared with PBMCs
Method: (§3) PN-based TLR8 ligand stabilized immunomodulatory RNA (5′-M2[…]-/glycerol/-[…]2-5′ (M2=C6-linker); SEQ ID NO:3) and PN-based TLR7 ligand stabilized immunomodulatory RNA (5′-[…]-/glycerol/-[…]-5′ (R=7-deazaguanosine); SEQ ID NO:2) were previously identified (Lan et al., PNAS 104:13750-13755, 2007). The effect of these TLR7— and TLR8-stimulating RNA PN was evaluated by measuring production of IL-6 and TNF-α in human peripheral blood mononuclear cells (PBMCs) and human monocytes (FIG. 2). 5×10^5 PBMCs or 2×10^5 monocytes from healthy human donors were stimulated with 20 μg/mL, 100 μg/mL, or 200 μg/mL of either TLR8 agonist or TLR7 agonist as indicated in FIG. 2. Twenty-four hours later supernatants were assessed for presence of inflammatory cytokines IL-6 and TNF-α by standard ELISA procedure.

[2] = system: human peripheral blood mononuclear cells (PBMCs); assay: Cytokine production by human PBMCs stimulated with TLR7/TLR8 RNA PN (ELISA); conditions: 5×10^5 human PBMCs, 20, 100 or 200 μg/mL, 24 hours
Method: as §3

[3] = biological target: T1, human TLR8 expressed from the transgene in TLR8TGCL8 mice; assay: Cytokine production by blood cells from TLR8TGCL8 transgenic mice (ELISA); conditions: 5×10^5 blood cells from TLR8TGCL8 mice vs C57BL/6 WT, 200 or 100 μg/mL, 24 hours
From the text: as §2

Row | Substance | stimulation of mouse splenocytes (IL-12 and TNF-α production) (Mouse splenocytes) | stimulation of pDCs (IL-6, TNF-α and IFN-α production) (human pDCs) | mouse TNF-α and IL-6 production by bone marrow cells [1] | stimulation of mouse PBMCs (IL-12 and TNF-α production) (Mouse PBMCs) | production of IL-6 and TNF-α in monocytes (human monocytes) | production of IL-6 and TNF-α in PBMCs [2] | mouse IL-12, TNF-α and IL-6 production by blood cells [3]
1 | 5′-M2UGCUGCUUGUG-/glycerol/-GUGUUCGUCGUM2-5′ (M2=C6-linker) (NUGCUGCUUGUGNGUGUUCGUCGUN; listed as RNA, chemistry not fully specified) [TLR8 agonist, PN-based TLR8 ligand stabilized immunomodulatory RNA, previously identified (Lan et al., PNAS 2007)] | did not stimulate | did not stimulate | Only cells from transgenic animals responded | did not stimulate | to a lesser extent | stimulated production | Only cells from transgenic animals responded
2 | 5′-URCURCUUCUR-/glycerol/-RUCUUCRUCRU-5′ (R=7-deazaguanosine) [TLR7 agonist] |  |  |  |  | to a lesser extent | stimulated production | 
